Measured values: patent US20250270180A1, “MEK INHIBITORS AND THERAPEUTIC USES THEREOF” (Immuneering Corporation, priority 2020, published 2025)

Tests used:
A549 pERK = assay: A549-pERK, 2 h (quantitative Western, Jess); assay type: cell-based; conditions: Homo sapiens, phospho:total ratio normalized to DMSO control
Protocol: (§1) A549 or […] cells were treated in duplicate for two hours with compounds at varying concentrations. After two hours, the cells were lysed, snap frozen, and stored at −80° C. After storage, the lysate was quantified with the Bradford assay. Before the lysates were prepared to run on the Jess, the lysates were diluted to 1 mg/mL for pERK analysis and 1.5 mg/mL pMEK analysis using quantitative Western blotting. ERK and MEK phosphorylation levels were estimated by taking the ratio of phospho-protein to total protein and normalizing to the DMSO control. The results of this study are described in Tables 14-16.

[1] = test system: A549 CRAF BP (MEK phosphorylation); assay: A549-CRAF BP 100 nM, 2 h (pMEK); assay type: cell-based; conditions: Homo sapiens, A549, 2 h, phospho:total ratio normalized to DMSO control
Protocol: as §1

Row | Structure (SMILES) | activity at 0.01 µM (A549 pERK; A549, 2 h, 10 nM) | activity at 0.1 µM [1] | activity at 10 µM (A549 pERK; A549, 2 h) | activity at 0.01 µM (A549 pERK; A549, 10 nM)
1 | CNS(=O)(=O)Nc1cccc(Cc2c(CN3CCNCC3)c3cc(Cl)c(OC(=O)N(C)C)cc3oc2=O)c1F [Compound 21] | 20.4% | 47.9% | – | –
2 | CNS(=O)(=O)Nc1cccc(Cc2c(CN(C)C)c3cc(Cl)c(OC(=O)N(C)C)cc3oc2=O)c1F [Compound 24] | 42.4% | 55.9% | – | –
3 | CNS(=O)(=O)Nc1cccc(Cc2c(CN(C)C)c3cc(F)c(OC(=O)N(C)C)cc3oc2=O)c1F [Compound 25] | 66.2% | 71% | – | –
4 | CNS(=O)(=O)Nc1cccc(Cc2c(CNCC#N)c3ccc(OC(=O)N(C)C)cc3oc2=O)c1F [Compound 33] | 55.4% | 51.4% | – | –
5 | CCN(CC)Cc1c(Cc2cccc(NS(=O)(=O)NC)c2F)c(=O)oc2cc(OC(=O)N(C)C)ccc12 [Compound 73] | 77.7% | 33.9% | – | –
6 | CNS(=O)(=O)Nc1cccc(Cc2c(CN3CC(OC)C3)c3ccc(OC(=O)N(C)C)cc3oc2=O)c1F [Compound 74] | 75.3% | 59.2% | – | –
7 | CNS(=O)(=O)Nc1cccc(Cc2c(CNCC(F)(F)F)c3ccc(OC(=O)N(C)C)cc3oc2=O)c1F [Compound 75] | – | 66.5% | – | –
8 | CNS(=O)(=O)Nc1cccc(Cc2c(CN(C)CC(C)C)c3ccc(OC(=O)N(C)C)cc3oc2=O)c1F [Compound 78] | 78.6% | 64.2% | – | –
9 | CNS(=O)(=O)Nc1cccc(Cc2c(CN(C)c3ccccc3)c3ccc(OC(=O)N(C)C)cc3oc2=O)c1F [Compound 79] | – | 45.2% | – | –
10 | CNS(=O)(=O)Nc1cccc(Cc2c(CN(C)Cc3ccccc3)c3ccc(OC(=O)N(C)C)cc3oc2=O)c1F [Compound 80] | 56.4% | 56.1% | – | –
11 | CCCN(C)Cc1c(Cc2cccc(NS(=O)(=O)NC)c2F)c(=O)oc2cc(OC(=O)N(C)C)ccc12 [Compound 81] | 57.6% | 78.3% | – | –
12 | CNS(=O)(=O)Nc1cccc(Cc2c(CN(C)C3CC3)c3ccc(OC(=O)N(C)C)cc3oc2=O)c1F [Compound 82] | 64.9% | 72.3% | – | –
13 | CNS(=O)(=O)Nc1cccc(Cc2c(CN(C)CC3CC3)c3ccc(OC(=O)N(C)C)cc3oc2=O)c1F [Compound 84] | 83.2% | 87.3% | – | –
14 | CNS(=O)(=O)Nc1cccc(Cc2c(CN(C)C3CCC3)c3ccc(OC(=O)N(C)C)cc3oc2=O)c1F [Compound 86] | 96.4% | 53.2% | – | –
15 | CNS(=O)(=O)Nc1cccc(Cc2c(CN(C)CC#N)c3ccc(OC(=O)N(C)C)cc3oc2=O)c1F [Compound 87] | 63.8% | 95.8% | – | –
16 | CNS(=O)(=O)Nc1cccc(Cc2c(CN(C)CC3CCC3)c3ccc(OC(=O)N(C)C)cc3oc2=O)c1F [Compound 88] | 142% | 53.6% | – | –
17 | CNS(=O)(=O)Nc1cccc(Cc2c(CNc3ccsc3)c3ccc(OC(=O)N(C)C)cc3oc2=O)c1F [Compound 90] | 72.4% | 71% | – | –
18 | CNS(=O)(=O)Nc1cccc(Cc2c(CNc3cncs3)c3ccc(OC(=O)N(C)C)cc3oc2=O)c1F [Compound 91] | 74.6% | 84.2% | – | –
19 | CNS(=O)(=O)Nc1cccc(Cc2c(CN(C)c3ccc(Cl)cc3)c3ccc(OC(=O)N(C)C)cc3oc2=O)c1F [Compound 97] | 56.5% | 52.1% | – | –
20 | CCS(=O)(=O)Nc1cccc(Cc2c(C)c3ccc(OC(=O)N(C)C)cc3oc2=O)c1F [Compound 107] | 18% | 39.9% | – | –
21 | CNS(=O)(=O)Nc1cccc(Cc2c(C)c3cc(C)c(OC(=O)N(C)C)cc3oc2=O)c1F [Compound 108] | 5.78% | 47.9% | – | –
22 | CNS(=O)(=O)Nc1cccc(Cc2c(C)c3cc(Cl)c(OC(=O)N(C)C)cc3oc2=O)c1F [Compound 109] | 4.51% | 41.9% | – | –
23 | CNS(=O)(=O)Nc1nccc(Cc2c(C)c3cc(C)c(OC(=O)N(C)C)cc3oc2=O)c1F [Compound 110] | 5.92% | 56.6% | – | –
24 | CNS(=O)(=O)Nc1nccc(Cc2c(C)c3cc(Cl)c(OC(=O)N(C)C)cc3oc2=O)c1F [Compound 111] | 4.63% | 48.6% | – | –
25 | Cc1c(Cc2ccnc(NS(=O)(=O)C3CC3)c2F)c(=O)oc2cc(OC(=O)N(C)C)ccc12 [Compound 112] | 46.3% | 52.9% | – | –
26 | Cc1c(Cc2cccc(NS(=O)(=O)C3CC3)c2F)c(=O)oc2cc(OC(=O)N(C)C)ccc12 [Compound 113] | 24.7% | 48% | – | –
27 | Cc1c(Cc2ccnc(NS(=O)(=O)C(C)C)c2F)c(=O)oc2cc(OC(=O)N(C)C)ccc12 [Compound 114] | 36.6% | 59.9% | – | –

Row | Structure (SMILES) | activity at 0.01 µM (A549 pERK; A549, 2 h, 10 nM) | activity at 0.1 µM [1] | activity at 10 µM (A549 pERK; A549, 2 h) | activity at 0.01 µM (A549 pERK; A549, 10 nM)
28 | Cc1c(Cc2cccc(NS(=O)(=O)C(C)C)c2F)c(=O)oc2cc(OC(=O)N(C)C)ccc12 [Compound 115] | 13.5% | 39.2% | – | –
29 | Cc1c(Cc2cccc(NS(=O)(=O)C3CCC3)c2F)c(=O)oc2cc(OC(=O)N(C)C)ccc12 [Compound 118] | 21.1% | 39.1% | – | –
30 | CCS(=O)(=O)Nc1nccc(Cc2c(C)c3ccc(OC(=O)N(C)C)cc3oc2=O)c1F [Compound 119] | 64.8% | 66.1% | – | –
31 | Cc1c(Cc2ccnc(NS(=O)(=O)C3CCC3)c2F)c(=O)oc2cc(OC(=O)N(C)C)ccc12 [Compound 125] | 54.4% | 41.7% | – | –
32 | CNS(=O)(=O)Nc1cccc(Cc2c(CN(C)C)c3ccc(OC(=O)N4CCC4)cc3oc2=O)c1F [Compound 128] | 66.3% | 37.7% | – | –
33 | CCS(=O)(=O)Nc1cccc(Cc2c(CN(C)C)c3cc(Cl)c(OC(=O)N(C)C)cc3oc2=O)c1F [Compound 132] | 62.6% | 57.8% | – | –
34 | CNS(=O)(=O)Nc1nccc(Cc2c(CN(C)C)c3cc(F)c(OC(=O)N(C)C)cc3oc2=O)c1F [Compound 140] | 65% | 70.3% | – | –
35 | CCS(=O)(=O)Nc1cccc(Cc2c(CN3CCNCC3)c3cc(Cl)c(OC(=O)N(C)C)cc3oc2=O)c1F [Compound 147] | 21.7% | 46.4% | – | –
36 | CNS(=O)(=O)Nc1cccc(Cc2c(CCNCC3CC3)c3ccc(OC(=O)N(C)C)cc3oc2=O)c1F [Compound 186] | 80.1% | – | 0.74% | –
37 | CNS(=O)(=O)Nc1cccc(Cc2c(CNc3ccc(OC)nc3)c3ccc(OC(=O)N(C)C)cc3oc2=O)c1F [Compound 193] | 90.7% | – | – | –
38 | CNS(=O)(=O)Nc1cccc(Cc2c(CC(=O)N3CCN(C)CC3)c3ccc(OC(=O)N(C)C)cc3oc2=O)c1F [Compound 195] | 113% | – | – | –
39 | CNS(=O)(=O)Nc1cccc(Cc2c(CC(=O)N(C)C)c3ccc(OC(=O)N(C)C)cc3oc2=O)c1F [Compound 196] | 106% | – | – | –
40 | CNS(=O)(=O)Nc1cccc(Cc2c(CC(=O)N(C)CC#N)c3ccc(OC(=O)N(C)C)cc3oc2=O)c1F [Compound 198] | 109% | – | – | –
41 | CNS(=O)(=O)Nc1cccc(Cc2c(CC(=O)Nc3ccon3)c3ccc(OC(=O)N(C)C)cc3oc2=O)c1F [Compound 201] | 119% | – | – | –
42 | CNS(=O)(=O)Nc1cccc(Cc2c(CC(=O)Nc3ccn[nH]3)c3ccc(OC(=O)N(C)C)cc3oc2=O)c1F [Compound 202] | 119% | – | – | –
43 | CNS(=O)(=O)Nc1cccc(Cc2c(CN(C)C)c3ccc(OC(=S)N(C)C)cc3oc2=O)c1F [Compound 204] | – | – | – | 83.4%
44 | CCC(=O)NCc1c(Cc2cccc(NS(=O)(=O)NC)c2F)c(=O)oc2cc(OC(=O)N(C)C)ccc12 [Compound 207] | 97.4% | – | 11.3% | –
45 | CNS(=O)(=O)Nc1cccc(Cc2c(CNC(=O)C(C)C)c3ccc(OC(=O)N(C)C)cc3oc2=O)c1F [Compound 208] | 105% | – | 23.6% | –
46 | CNS(=O)(=O)Nc1cccc(Cc2c(CNC(=O)c3c[nH]nn3)c3ccc(OC(=O)N(C)C)cc3oc2=O)c1F [Compound 211] | 121% | – | 70.8% | –
47 | CNS(=O)(=O)Nc1cccc(Cc2c(CNC(=O)C(C)(C)O)c3ccc(OC(=O)N(C)C)cc3oc2=O)c1F [Compound 212] | 100% | – | 13% | –
48 | CNS(=O)(=O)Nc1cccc(Cc2c(CNC(=O)c3nn[nH]n3)c3ccc(OC(=O)N(C)C)cc3oc2=O)c1F [Compound 213] | 100% | – | 70.1% | –
49 | CNS(=O)(=O)Nc1cccc(Cc2c(CC(=O)NC3CCOCC3)c3ccc(OC(=O)N(C)C)cc3oc2=O)c1F [Compound 215] | 100% | – | 11.8% | –
50 | CNS(=O)(=O)Nc1cccc(Cc2c(CC(=O)N3CC(OC)C3)c3ccc(OC(=O)N(C)C)cc3oc2=O)c1F [Compound 216] | 89.5% | – | 4.51% | –
51 | CNS(=O)(=O)Nc1cccc(Cc2c(CNCC(=O)N(C)CC#N)c3ccc(OC(=O)N(C)C)cc3oc2=O)c1F [Compound 217] | 96.7% | – | 11.2% | –
52 | C#CCNC(=O)CNCc1c(Cc2cccc(NS(=O)(=O)NC)c2F)c(=O)oc2cc(OC(=O)N(C)C)ccc12 [Compound 218] | 113% | – | 9.46% | –
53 | CNS(=O)(=O)Nc1cccc(Cc2c(CNCC(=O)N(C)c3ccccc3)c3ccc(OC(=O)N(C)C)cc3oc2=O)c1F [Compound 220] | 109% | – | 4.28% | –
54 | CNS(=O)(=O)Nc1cccc(Cc2c(CNCC(=O)Nc3ccccc3)c3ccc(OC(=O)N(C)C)cc3oc2=O)c1F [Compound 223] | 119% | – | 3.04% | –
